According to patent US9346798B2, “Dihydrobenzoxazine and tetrahydroquinoxaline sodium channel inhibitors” (AMGEN INC., priority 2012, dated 2016):

How the values were obtained:
Assay type in all cases: cell-based
Nav 1.5 = Nav 1.5 (Homo sapiens (Human), UniProt Q14524); experiment: Nav 1.5 in vitro assay, IonWorks Quattro (IWQ) population patch-clamp; conditions: HEK 293 cells stably transfected with Nav 1.5; 26th pulse to -20 mV
Nav 1.7 [1] = target: T1, Nav 1.7 (Homo sapiens (Human), UniProt Q15858); experiment: Nav 1.7 in vitro assay, IonWorks Quattro (IWQ) population patch-clamp; conditions: HEK 293 cells stably transfected with Nav 1.7; 26th pulse to -20 mV
T1 sequence (Q15858 whole entry): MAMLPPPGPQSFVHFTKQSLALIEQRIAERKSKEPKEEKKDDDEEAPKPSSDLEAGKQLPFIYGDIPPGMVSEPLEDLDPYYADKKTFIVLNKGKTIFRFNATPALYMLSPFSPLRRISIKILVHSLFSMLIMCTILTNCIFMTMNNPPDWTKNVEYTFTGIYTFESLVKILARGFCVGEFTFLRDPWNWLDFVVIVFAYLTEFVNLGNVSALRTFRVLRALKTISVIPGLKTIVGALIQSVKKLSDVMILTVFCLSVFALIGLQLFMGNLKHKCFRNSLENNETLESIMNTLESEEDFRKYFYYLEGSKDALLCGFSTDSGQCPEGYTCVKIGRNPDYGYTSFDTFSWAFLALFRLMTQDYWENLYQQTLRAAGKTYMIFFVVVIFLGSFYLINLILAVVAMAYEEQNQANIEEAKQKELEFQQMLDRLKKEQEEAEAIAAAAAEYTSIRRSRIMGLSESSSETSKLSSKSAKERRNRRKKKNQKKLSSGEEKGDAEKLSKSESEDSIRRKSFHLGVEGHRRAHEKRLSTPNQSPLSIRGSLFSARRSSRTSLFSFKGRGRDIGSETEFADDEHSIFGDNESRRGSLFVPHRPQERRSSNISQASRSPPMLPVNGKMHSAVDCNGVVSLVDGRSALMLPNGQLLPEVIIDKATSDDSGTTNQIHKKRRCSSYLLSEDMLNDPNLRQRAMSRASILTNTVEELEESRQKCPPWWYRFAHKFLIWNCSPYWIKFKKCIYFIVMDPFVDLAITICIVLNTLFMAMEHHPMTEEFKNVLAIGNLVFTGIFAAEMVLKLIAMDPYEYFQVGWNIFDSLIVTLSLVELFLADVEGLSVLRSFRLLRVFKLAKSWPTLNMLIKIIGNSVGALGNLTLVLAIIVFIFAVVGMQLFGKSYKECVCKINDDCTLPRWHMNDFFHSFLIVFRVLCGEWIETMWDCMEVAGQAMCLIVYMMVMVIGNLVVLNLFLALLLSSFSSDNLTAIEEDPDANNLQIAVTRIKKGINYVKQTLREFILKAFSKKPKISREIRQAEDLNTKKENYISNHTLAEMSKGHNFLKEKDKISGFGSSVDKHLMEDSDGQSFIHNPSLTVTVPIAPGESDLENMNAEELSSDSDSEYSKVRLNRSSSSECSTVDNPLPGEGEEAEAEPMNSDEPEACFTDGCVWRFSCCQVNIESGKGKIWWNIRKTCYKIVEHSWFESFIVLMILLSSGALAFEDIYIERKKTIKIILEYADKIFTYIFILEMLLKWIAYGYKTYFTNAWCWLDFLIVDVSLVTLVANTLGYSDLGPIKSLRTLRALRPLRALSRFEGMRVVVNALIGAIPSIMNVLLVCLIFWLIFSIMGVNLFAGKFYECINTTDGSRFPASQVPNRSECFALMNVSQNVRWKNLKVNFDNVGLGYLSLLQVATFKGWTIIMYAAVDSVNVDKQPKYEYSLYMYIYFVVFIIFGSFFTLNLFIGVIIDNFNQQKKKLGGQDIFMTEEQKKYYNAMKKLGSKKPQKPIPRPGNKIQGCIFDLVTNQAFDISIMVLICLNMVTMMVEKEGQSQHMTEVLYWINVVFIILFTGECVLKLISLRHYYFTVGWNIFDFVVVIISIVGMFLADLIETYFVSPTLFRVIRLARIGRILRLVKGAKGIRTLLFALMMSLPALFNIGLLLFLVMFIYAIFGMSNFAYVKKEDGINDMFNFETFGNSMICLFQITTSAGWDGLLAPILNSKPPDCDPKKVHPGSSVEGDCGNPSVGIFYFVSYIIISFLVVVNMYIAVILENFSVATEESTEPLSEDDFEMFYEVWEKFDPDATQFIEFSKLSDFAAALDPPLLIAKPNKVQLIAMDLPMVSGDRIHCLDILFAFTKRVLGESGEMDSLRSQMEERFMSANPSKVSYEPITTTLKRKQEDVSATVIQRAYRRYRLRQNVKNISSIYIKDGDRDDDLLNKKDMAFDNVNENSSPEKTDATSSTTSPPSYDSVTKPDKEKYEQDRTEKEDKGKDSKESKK

Nav 1.7 [2] = target: T1, Nav 1.7; experiment: Nav 1.7 in vitro PX assay, PatchXpress whole cell voltage clamp; conditions: HEK 293 cells stably transfected with human Nav1.7; for IC50: partially inactivated state (20 to 50% inactivation); for inhibition at 4.9 µM: HEK293, values marked *, read-out: Nav 1.7 PX percent inhibition at 4.9 μM
In short: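 Partially inactivated channels (20–50% inactivation at holding potential) were probed on automated patch clamp in stably transfected HEK293 cells, stepping to −10 mV for 20 msec every 10 s (0.1 Hz).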

Sequence of Nav 1.5 (Q14524 whole entry): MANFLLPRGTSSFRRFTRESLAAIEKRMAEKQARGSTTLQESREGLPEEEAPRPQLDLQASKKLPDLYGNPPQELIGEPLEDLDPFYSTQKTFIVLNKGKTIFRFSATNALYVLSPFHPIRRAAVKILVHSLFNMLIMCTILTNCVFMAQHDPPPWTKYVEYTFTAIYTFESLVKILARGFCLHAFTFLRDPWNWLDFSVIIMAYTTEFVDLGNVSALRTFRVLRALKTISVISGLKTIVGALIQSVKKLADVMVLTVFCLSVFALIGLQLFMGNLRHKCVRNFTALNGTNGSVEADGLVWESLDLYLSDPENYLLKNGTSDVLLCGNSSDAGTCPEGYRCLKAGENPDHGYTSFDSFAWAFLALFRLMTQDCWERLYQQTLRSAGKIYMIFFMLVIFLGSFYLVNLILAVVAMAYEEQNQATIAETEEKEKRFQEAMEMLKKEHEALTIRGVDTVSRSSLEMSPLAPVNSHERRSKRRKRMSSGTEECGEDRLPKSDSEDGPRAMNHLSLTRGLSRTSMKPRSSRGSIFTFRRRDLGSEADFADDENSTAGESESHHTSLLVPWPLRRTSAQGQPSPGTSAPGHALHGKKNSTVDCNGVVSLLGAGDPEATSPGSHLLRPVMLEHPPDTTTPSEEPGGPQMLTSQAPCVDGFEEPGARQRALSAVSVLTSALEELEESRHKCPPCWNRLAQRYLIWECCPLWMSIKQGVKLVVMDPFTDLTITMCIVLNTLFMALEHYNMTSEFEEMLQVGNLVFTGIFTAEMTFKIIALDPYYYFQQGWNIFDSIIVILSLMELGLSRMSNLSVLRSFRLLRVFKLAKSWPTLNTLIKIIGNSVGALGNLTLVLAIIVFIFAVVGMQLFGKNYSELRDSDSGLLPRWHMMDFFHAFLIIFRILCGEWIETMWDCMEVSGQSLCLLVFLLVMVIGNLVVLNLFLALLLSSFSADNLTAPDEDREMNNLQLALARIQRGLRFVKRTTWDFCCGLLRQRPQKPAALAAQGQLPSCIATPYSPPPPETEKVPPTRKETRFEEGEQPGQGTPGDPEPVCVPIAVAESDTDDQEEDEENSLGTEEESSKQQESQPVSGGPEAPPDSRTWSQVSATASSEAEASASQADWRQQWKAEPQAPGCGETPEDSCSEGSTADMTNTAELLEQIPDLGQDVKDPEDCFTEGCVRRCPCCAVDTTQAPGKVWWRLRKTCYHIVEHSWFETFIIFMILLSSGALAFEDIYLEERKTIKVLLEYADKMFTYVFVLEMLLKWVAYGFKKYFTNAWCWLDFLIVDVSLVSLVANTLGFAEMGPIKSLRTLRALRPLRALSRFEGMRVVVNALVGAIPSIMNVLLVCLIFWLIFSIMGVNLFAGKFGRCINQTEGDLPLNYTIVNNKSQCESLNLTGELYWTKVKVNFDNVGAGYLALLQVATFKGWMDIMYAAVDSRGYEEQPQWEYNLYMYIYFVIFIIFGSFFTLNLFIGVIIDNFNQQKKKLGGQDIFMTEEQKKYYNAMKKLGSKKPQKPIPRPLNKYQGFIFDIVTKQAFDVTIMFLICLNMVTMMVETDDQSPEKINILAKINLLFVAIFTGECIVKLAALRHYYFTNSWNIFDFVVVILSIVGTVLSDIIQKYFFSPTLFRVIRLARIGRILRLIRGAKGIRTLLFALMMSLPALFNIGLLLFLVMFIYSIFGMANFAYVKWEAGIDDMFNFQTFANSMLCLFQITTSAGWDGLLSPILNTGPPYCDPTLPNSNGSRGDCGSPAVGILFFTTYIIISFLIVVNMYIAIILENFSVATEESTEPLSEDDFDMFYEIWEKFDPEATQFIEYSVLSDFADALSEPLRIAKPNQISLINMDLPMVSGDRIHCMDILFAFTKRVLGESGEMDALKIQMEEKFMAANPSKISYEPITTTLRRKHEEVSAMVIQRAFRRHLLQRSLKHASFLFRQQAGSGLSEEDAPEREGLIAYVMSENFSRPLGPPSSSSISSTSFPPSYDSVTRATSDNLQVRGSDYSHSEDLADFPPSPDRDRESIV

Structure (SMILES)	IC50 (Nav 1.5) [nM]	IC50 (Nav 1.7 [1]) [nM]	IC50 (Nav 1.7 [2]) [nM]	inhibition at 4.9 µM (Nav 1.7 [2]) [%]
COc1ccc(C)nc1N1CCOc2cc(S(=O)(=O)Nc3nccs3)ccc21 [Example 109, 4-(3-methoxy-6-methyl-2-pyridinyl)-N-1,3-thiazol-2-yl-3,4-dihydro-2H-1,4-benzoxazine-7-sulfonamide]	> 10000	249	1980	
Cc1cc(F)cnc1N1CCOc2cc(S(=O)(=O)Nc3nccs3)ccc21 [Example 110, 4-(5-Fluoro-3-methylpyridin-2-yl)-N-(thiazol-2-yl)-3,4-dihydro-2H-benzo[b][1,4]oxazine-7-sulfonamide]	> 10000	1700		39.2
COc1ncc(Cl)cc1N1CCOc2cc(S(=O)(=O)Nc3nccs3)ccc21 [Example 111, 4-(5-Chloro-2-methoxypyridin-3-yl)-N-(thiazol-2-yl)-3,4-dihydro-2H-benzo[b][1,4]oxazine-7-sulfonamide]	3030	33.5	1050	
CC(C)c1ccc(N2CCOc3cc(S(=O)(=O)Nc4nccs4)ccc32)cc1 [Example 112, 4-(4-Isopropylphenyl)-N-(thiazol-2-yl)-3,4-dihydro-2H-benzo[b][1,4]oxazine-7-sulfonamide]	> 10000	1660	12200	
O=S(=O)(Nc1nccs1)c1ccc2c(c1)OCCN2c1ccc(OCC(F)(F)F)cc1 [Example 113, N-(thiazol-2-yl)-4-(4-(2,2,2-trifluoroethoxy)phenyl)-3,4-dihydro-2H-benzo[b][1,4]oxazine-7-sulfonamide]	3370	891	2720	
COc1ccc(C(F)(F)F)cc1N1CCOc2cc(S(=O)(=O)Nc3nccs3)ccc21 [Example 114, 4-(2-Methoxy-5-(trifluoromethyl)phenyl)-N-(thiazol-2-yl)-3,4-dihydro-2H-benzo[b][1,4]oxazine-7-sulfonamide]	5060	40.5	278	
Cc1ccc(N2CCOc3cc(S(=O)(=O)Nc4nccs4)ccc32)cc1C#N [Example 115, 4-(3-Cyano-4-methylphenyl)-N-(thiazol-2-yl)-3,4-dihydro-2H-benzo[b][1,4]oxazine-7-sulfonamide]	7730	1280	5570	
Cc1cc(N2CCOc3cc(S(=O)(=O)Nc4nccs4)ccc32)ccc1C#N [Example 116, 4-(4-Cyano-3-methylphenyl)-N-(thiazol-2-yl)-3,4-dihydro-2H-benzo[b][1,4]oxazine-7-sulfonamide]	7360	841	4950	
COc1ccc(N2CCOc3cc(S(=O)(=O)Nc4nccs4)ccc32)cc1C#N [Example 118, 4-(3-Cyano-4-methoxyphenyl)-N-(thiazol-2-yl)-3,4-dihydro-2H-benzo[b][1,4]oxazine-7-sulfonamide]	> 10000	660	18100	
COc1ccc(N2CCOc3cc(S(=O)(=O)Nc4nccs4)ccc32)c(OC)c1 [Example 120, 4-(2,4-Dimethoxyphenyl)-N-(thiazol-2-yl)-3,4-dihydro-2H-benzo[b][1,4]oxazine-7-sulfonamide]	> 10000	796	2240	
O=S(=O)(Nc1nccs1)c1ccc2c(c1)OCCN2c1ccc(C(F)(F)F)nc1 [Example 122, N-(thiazol-2-yl)-4-(6-(trifluoromethyl)pyridin-3-yl)-3,4-dihydro-2H-benzo[b][1,4]oxazine-7-sulfonamide]	7030	615	2900	
O=S(=O)(Nc1nccs1)c1ccc2c(c1)OCCN2c1ccc(OC(F)(F)C(F)F)cc1 [Example 123, 4-(4-(1,1,2,2-Tetrafluoroethoxy)phenyl)-N-(thiazol-2-yl)-3,4-dihydro-2H-benzo[b][1,4]oxazine-7-sulfonamide]	5810	1070	4720	
Cc1cc(C#N)cc(N2CCOc3cc(S(=O)(=O)Nc4nccs4)ccc32)c1 [Example 124, 4-(3-Cyano-5-methylphenyl)-N-(thiazol-2-yl)-3,4-dihydro-2H-benzo[b][1,4]oxazine-7-sulfonamide]	2330	160	2690	
O=S(=O)(Nc1nccs1)c1ccc2c(c1)OCCN2c1ccc(Cl)c(C(F)(F)F)c1 [Example 125, 4-(4-Chloro-3-(trifluoromethyl)phenyl)-N-(thiazol-2-yl)-3,4-dihydro-2H-benzo[b][1,4]oxazine-7-sulfonamide]	6550	571	4040	
O=S(=O)(Nc1nccs1)c1ccc2c(c1)OCCN2c1ccc(C(F)(F)F)c(Cl)c1 [Example 126, 4-(3-Chloro-4-(trifluoromethyl)phenyl)-N-(thiazol-2-yl)-3,4-dihydro-2H-benzo[b][1,4]oxazine-7-sulfonamide]	> 10000	1240	14200	
O=S(=O)(Nc1nccs1)c1ccc2c(c1)OCCN2c1ccc2c(c1)OC(F)(F)O2 [Example 127, 4-(2,2-Difluorobenzo[d][1,3]dioxol-5-yl)-N-(thiazol-2-yl)-3,4-dihydro-2H-benzo[b][1,4]oxazine-7-sulfonamide]	> 10000	475	1320	
N#Cc1ccc(OC(F)(F)F)cc1N1CCOc2cc(S(=O)(=O)Nc3nccs3)ccc21 [Example 128, 4-(2-Cyano-5-(trifluoromethoxy)phenyl)-N-(thiazol-2-yl)-3,4-dihydro-2H-benzo[b][1,4]oxazine-7-sulfonamide]	3690	69.5	912	
O=S(=O)(Nc1nccs1)c1ccc2c(c1)OCCN2c1cccc2c1OC(F)(F)O2 [Example 129, 4-(2,2-Difluorobenzo[d][1,3]dioxol-4-yl)-N-(thiazol-2-yl)-3,4-dihydro-2H-benzo[b][1,4]oxazine-7-sulfonamide]	> 10000	263	2900	
O=S(=O)(Nc1nccs1)c1ccc2c(c1)OCCN2c1cncc(Cl)c1 [Example 130, 4-(5-Chloropyridin-3-yl)-N-(thiazol-2-yl)-3,4-dihydro-2H-benzo[b][1,4]oxazine-7-sulfonamide]	6200	635	5290	
COc1cncc(N2CCOc3cc(S(=O)(=O)Nc4nccs4)ccc32)c1 [Example 131, 4-(5-Methoxypyridin-3-yl)-N-(thiazol-2-yl)-3,4-dihydro-2H-benzo[b][1,4]oxazine-7-sulfonamide]	> 10000	1310	23300	
Cc1cncc(C)c1N1CCOc2cc(S(=O)(=O)Nc3nccs3)ccc21 [Example 133, 4-(3,5-Dimethylpyridin-4-yl)-N-(thiazol-2-yl)-3,4-dihydro-2H-benzo[b][1,4]oxazine-7-sulfonamide]	> 10000	1590		20.2
Cc1cc(N2CCOc3cc(S(=O)(=O)Nc4nccs4)ccc32)c(C)cn1 [Example 134, 4-(2,5-Dimethylpyridin-4-yl)-N-(thiazol-2-yl)-3,4-dihydro-2H-benzo[b][1,4]oxazine-7-sulfonamide]	> 10000	1340	17100	
Cc1ccc(C#N)c(N2CCOc3cc(S(=O)(=O)Nc4nccs4)ccc32)n1 [Example 135, 4-(3-Cyano-6-methylpyridin-2-yl)-N-(thiazol-2-yl)-3,4-dihydro-2H-benzo[b][1,4]oxazine-7-sulfonamide]	> 10000	2680		22.6
O=S(=O)(Nc1nccs1)c1ccc2c(c1)OCCN2c1ncc(F)cc1F [Example 136, 4-(3,5-Difluoropyridin-2-yl)-N-(thiazol-2-yl)-3,4-dihydro-2H-benzo[b][1,4]oxazine-7-sulfonamide]	> 10000	2980		27.4
COc1cc(C)c(N2CCOc3cc(S(=O)(=O)Nc4nccs4)ccc32)cn1 [Example 137, 4-(6-Methoxy-4-methylpyridin-3-yl)-N-(thiazol-2-yl)-3,4-dihydro-2H-benzo[b][1,4]oxazine-7-sulfonamide]	> 10000	914	21700	
CCOc1ccc(N2CCOc3cc(S(=O)(=O)Nc4nccs4)ccc32)cn1 [Example 138, 4-(6-Ethoxypyridin-3-yl)-N-(thiazol-2-yl)-3,4-dihydro-2H-benzo[b][1,4]oxazine-7-sulfonamide]	3830	860	11500	
COc1ccc(OC)c(N2CCOc3cc(S(=O)(=O)Nc4nccs4)ccc32)c1 [Example 139, 4-(2,5-Dimethoxyphenyl)-N-(thiazol-2-yl)-3,4-dihydro-2H-benzo[b][1,4]oxazine-7-sulfonamide]	7040	69.5	415	
Cc1cc(OC(F)(F)F)ccc1N1CCOc2cc(S(=O)(=O)Nc3nccs3)ccc21 [Example 140, 4-(2-Methyl-4-(trifluoromethoxy)phenyl)-N-(thiazol-2-yl)-3,4-dihydro-2H-benzo[b][1,4]oxazine-7-sulfonamide]	6600	451	1340	
O=S(=O)(Nc1nccs1)c1ccc2c(c1)OCCN2c1ccc(-n2cccn2)cc1 [Example 141, 4-(4-(1H-pyrazol-1-yl)phenyl)-N-(thiazol-2-yl)-3,4-dihydro-2H-benzo[b][1,4]oxazine-7-sulfonamide]	2500	671	6420	
N#Cc1cccc(Cl)c1N1CCOc2cc(S(=O)(=O)Nc3nccs3)ccc21 [Example 142, 4-(2-Chloro-6-cyanophenyl)-N-(thiazol-2-yl)-3,4-dihydro-2H-benzo[b][1,4]oxazine-7-sulfonamide]	> 10000	2210		33.9
